15 compounds from patent publication EP4741389A1, “KAT6 INHIBITOR” (Shanghai Qilu Pharmaceutical Research and Development …, priority 2023, dated 2025) can be followed below.

One test deals with T1, KAT6A (Homo sapiens, UniProt Q92794).
T1 construct: purchased Active Motif 81223
The test is described as follows: KATs acetyltransferase enzyme activity assay (TR-FRET), KAT6A. It is filed as biochemical. The conditions noted are these: Biotin-H3 (1-21) and AcCOA, 90 minutes at room temperature. The procedure:
(§1) I. KATs acetyltransferase enzyme activity assay
• 1. The inhibitory effect of compounds on the acetyltransferase activity of KATs was evaluated using the Time-Resolved Fluorescence Resonance Energy Transfer (TR-FRET) assay. The assay was conducted in 384-well plates using Tris-HCl buffer. • 2. Compounds were diluted in DMSO and transferred to 384-well plates. […] Subsequently, 2.5 µL of a mixture containing KAT6A/KAT6B: Biotin-H3 (1-21, Genscript, C6829GL060) or KAT5/7/8: Bio-H4 (1-25, Genscript, C736BGL100) AcCOA (Sigma, A2056) was added, and the reaction proceeded at room temperature for 90 minutes. • 4. After the reaction, a detection mixture containing Europium-anti-acetyl-Histone H4 Lysine (H4Kac pan) Antibody (Perkin Elmer, TRF0412) and LANCE Ultra ULight™-Streptavidin in LANCE™ Detection buffer (10x) (Perkin Elmer, CR97-100) was added, followed by incubation at room temperature for 60 minutes. • 5. […] IC50 values were calculated by nonlinear regression using a four-parameter logistic equation in GraphPad Prism 8 software.

A further test concerns the target T2, KAT6B (Homo sapiens, UniProt Q8WYB5).
T2 construct: purchased Active Motif 81224
The test is described as follows: KATs acetyltransferase enzyme activity assay (TR-FRET), KAT6B. The conditions noted are these: Biotin-H3 (1-21) and AcCOA, 90 minutes at room temperature. It is filed as biochemical. As to the method: as §1
• 1. The inhibitory effect of compounds on the acetyltransferase activity of KATs was evaluated using the Time-Resolved Fluorescence Resonance Energy Transfer (TR-FRET) assay. The assay was conducted in 384-well plates using Tris-HCl buffer. • 2. Compounds were diluted in DMSO and transferred to 384-well plates. Enzyme solutions (KAT6: active motif (kit), 81223; KAT6B: active motif, 81224; KAT5: SignalChem, K314-380G; KAT7: ICE, S2210F-H21HF; KAT8: Active motif, 81225) were added and the mixture was incubated at room temperature for 15 minutes. • 3. Subsequently, 2.5 µL of a mixture containing KAT6A/KAT6B: Biotin-H3 (1-21, Genscript, C6829GL060) or KAT5/7/8: Bio-H4 (1-25, Genscript, C736BGL100) AcCOA (Sigma, A2056) was added, and the reaction proceeded at room temperature for 90 minutes. • 4. After the reaction, a detection mixture containing Europium-anti-acetyl-Histone H4 Lysine (H4Kac pan) Antibody (Perkin Elmer, TRF0412) and LANCE Ultra ULight™-Streptavidin in LANCE™ Detection buffer (10x) (Perkin Elmer, CR97-100) was added, followed by incubation at room temperature for 60 minutes. • 5. HTRF signals were measured using a BMG PHERAstar FSX (Ratio: 665nm/620nm). IC50 values were calculated by nonlinear regression using a four-parameter logistic equation in GraphPad Prism 8 software.

In test [1] the test system is ZR-75-1 H3K23 Acetylation. The test is described as follows: Histone H3 acetylation assay (H3K23 acetylation in ZR-75-1 cells). It is filed as cell-based. The note with it: Homo sapiens, 72 hours incubation, Odyssey CLx fluorescence, read-out: ZR-75-1 H3K23 Acetylation Inhibition IC50. As to the method: III. Histone H3 acetylation assay
• 1. ZR-75-1 cells were seeded at 5000 cells/40 µL per well in 384-well plates and cultured overnight in an incubator at 37°C & 5% CO2. • 2. 40 nL of serially diluted compounds were added to the 384-well plates, followed by further incubation for 72 hours. • 3. The supernatant was discarded, and 8 w/v% paraformaldehyde (final concentration was 4 w/v%) was added directly to the wells to fix the cells at room temperature. • 4. After washing twice with PBS, a permeabilization agent (40 µL of methanol) was added and incubated for 10 minutes to permeabilize the cell membranes. • 5. After washing twice with PBS, a blocking buffer was added and incubated at room temperature for 1 hour for blocking. • 6. The blocking buffer was discarded, and 20 µL of primary antibodies (recombinant Anti-Histone H3 (acetyl K23) antibody and Anti-Histone H4 antibody) diluted in blocking buffer (1:1000 by volume dilution) were added, followed by incubation at 4°C overnight. • 7. After washing three times with PBST (0.05 vol% Tween-20 in PBS), 20 µL of fluorescent secondary antibodies (IRDye 680RD Goat anti-MOUSE, Licor, 926-68070; IRDye 800CW Goat anti-Rabbit, Licor, 926-32211) diluted in blocking buffer (1:2000 by volume dilution) were added, followed by incubation at room temperature, protected from light, for 1 hour. Then, the plates were washed three times with PBST. • 8. Scanning was performed using an Odyssey CLx, and the fluorescence signal value for each well was quantified. IC50 values were calculated by nonlinear regression using a four-parameter logistic equation in GraphPad Prism 8 software.

The subject of the next test is ZR-75-1 cells. The test is described as follows: ZR-75-1 cell proliferation assay (CellTiter-Glo). The conditions noted are these: Homo sapiens, ZR-75-1, 240 h, total culture period of 10 days, read-out: ZR-75-1 Proliferation Inhibition IC50. It is filed as cell-based. As to the method: II. ZR-75-1 cell proliferation assay
• 1. ZR-75-1 cells were seeded in 96-well plates and cultured overnight in an incubator at 37°C & 5% CO2. • 2. Compounds were diluted using culture medium and added to the 96-well plates. The plates were placed back into the incubator for continued culture. Every 5 days, the cells were trypsinized, counted, and re-seeded. After the cells had fully adhered, compounds were added again for incubation, for a total culture period of 10 days. • 3. After the culture period, 60 µL of CellTiter-Glo reagent (Promega, G7573) was added to each well. The plates were protected from light and shaken for 2 minutes to lyse the cells, followed by further incubation at room temperature, protected from light, for 30 minutes. • 4. Luminescence signals were read using a BMG PHERAstar FSX. IC50 values were calculated by nonlinear regression using a four-parameter logistic equation in GraphPad Prism 8 software.

T2 sequence (Q8WYB5 whole entry): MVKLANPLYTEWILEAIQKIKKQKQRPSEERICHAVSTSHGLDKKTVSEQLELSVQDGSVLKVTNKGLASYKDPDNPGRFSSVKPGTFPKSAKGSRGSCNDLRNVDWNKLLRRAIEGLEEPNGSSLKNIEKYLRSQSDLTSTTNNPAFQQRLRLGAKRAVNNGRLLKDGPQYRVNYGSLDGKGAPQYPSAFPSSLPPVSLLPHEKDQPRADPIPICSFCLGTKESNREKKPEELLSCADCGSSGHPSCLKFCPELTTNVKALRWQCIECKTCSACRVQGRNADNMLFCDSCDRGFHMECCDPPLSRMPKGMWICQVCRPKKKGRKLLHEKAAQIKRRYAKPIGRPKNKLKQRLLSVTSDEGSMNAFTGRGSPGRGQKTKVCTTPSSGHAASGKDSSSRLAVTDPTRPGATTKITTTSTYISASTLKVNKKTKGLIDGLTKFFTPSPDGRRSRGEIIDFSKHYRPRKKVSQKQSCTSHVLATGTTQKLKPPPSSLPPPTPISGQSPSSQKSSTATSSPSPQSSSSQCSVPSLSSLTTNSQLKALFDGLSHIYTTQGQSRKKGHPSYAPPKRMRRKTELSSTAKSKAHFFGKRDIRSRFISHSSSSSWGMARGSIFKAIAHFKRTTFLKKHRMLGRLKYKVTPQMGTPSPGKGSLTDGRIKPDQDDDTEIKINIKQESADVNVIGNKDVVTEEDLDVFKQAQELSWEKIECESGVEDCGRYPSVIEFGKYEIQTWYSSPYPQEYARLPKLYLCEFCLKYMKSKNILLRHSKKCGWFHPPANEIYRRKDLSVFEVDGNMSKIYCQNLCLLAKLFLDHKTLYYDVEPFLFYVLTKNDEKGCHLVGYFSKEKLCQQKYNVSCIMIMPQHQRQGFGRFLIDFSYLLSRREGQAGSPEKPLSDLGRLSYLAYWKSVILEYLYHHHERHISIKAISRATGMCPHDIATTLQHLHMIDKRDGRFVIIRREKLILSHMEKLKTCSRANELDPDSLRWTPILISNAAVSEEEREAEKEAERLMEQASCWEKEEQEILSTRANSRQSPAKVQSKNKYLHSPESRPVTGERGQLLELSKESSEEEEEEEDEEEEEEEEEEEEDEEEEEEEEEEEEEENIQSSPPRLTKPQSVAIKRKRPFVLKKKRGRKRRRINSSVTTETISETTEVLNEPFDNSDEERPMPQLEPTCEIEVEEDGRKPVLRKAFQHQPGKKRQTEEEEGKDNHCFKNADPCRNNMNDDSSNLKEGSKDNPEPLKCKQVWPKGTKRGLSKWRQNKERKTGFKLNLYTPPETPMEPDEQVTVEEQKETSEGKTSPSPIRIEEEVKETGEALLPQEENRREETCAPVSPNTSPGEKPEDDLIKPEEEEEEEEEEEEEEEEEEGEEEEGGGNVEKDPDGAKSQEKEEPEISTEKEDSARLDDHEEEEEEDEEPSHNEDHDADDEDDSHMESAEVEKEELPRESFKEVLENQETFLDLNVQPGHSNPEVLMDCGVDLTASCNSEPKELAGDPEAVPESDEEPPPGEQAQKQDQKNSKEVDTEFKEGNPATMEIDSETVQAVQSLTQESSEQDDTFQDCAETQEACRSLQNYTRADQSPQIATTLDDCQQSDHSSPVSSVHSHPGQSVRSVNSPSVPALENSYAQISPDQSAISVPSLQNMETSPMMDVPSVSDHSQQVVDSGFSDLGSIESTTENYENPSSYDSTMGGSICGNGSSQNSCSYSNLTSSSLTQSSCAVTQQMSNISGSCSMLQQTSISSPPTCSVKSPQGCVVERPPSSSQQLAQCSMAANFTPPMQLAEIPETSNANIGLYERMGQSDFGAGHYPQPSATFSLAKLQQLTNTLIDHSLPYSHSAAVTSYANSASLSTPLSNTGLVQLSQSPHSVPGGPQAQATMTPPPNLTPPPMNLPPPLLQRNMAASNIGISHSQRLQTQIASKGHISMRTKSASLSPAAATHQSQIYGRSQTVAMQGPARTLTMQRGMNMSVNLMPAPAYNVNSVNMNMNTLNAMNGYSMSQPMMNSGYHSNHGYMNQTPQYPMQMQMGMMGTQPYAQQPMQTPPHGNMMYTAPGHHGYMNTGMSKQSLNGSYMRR
T1 sequence (Q92794 488-778 limits assumed): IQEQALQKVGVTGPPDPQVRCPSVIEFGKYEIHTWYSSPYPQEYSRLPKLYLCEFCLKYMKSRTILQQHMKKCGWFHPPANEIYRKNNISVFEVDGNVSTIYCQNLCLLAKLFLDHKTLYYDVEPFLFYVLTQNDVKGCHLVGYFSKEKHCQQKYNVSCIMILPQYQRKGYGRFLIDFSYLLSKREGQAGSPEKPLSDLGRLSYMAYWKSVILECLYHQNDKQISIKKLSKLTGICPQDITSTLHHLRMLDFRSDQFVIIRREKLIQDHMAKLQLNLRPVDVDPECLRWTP

With `COc1ccc2c(c1S(=O)(=O)Nc1noc3cc(Cn4cccn4)c(C)c(OC)c13)OCC21CC1` [Compound 25, N-(6-((1H-Pyrazol-1-yl)methyl)-4-methoxy-5-methylbenzo[d]isoxazol-3-yl)-6-methoxy-2H-spiro[benzofuran-3,1'-cyclopropane]-7-sulfonamide], the IC50 against KAT6A stood at 5.9 nM; against KAT6B it was 70.3 nM.
As for `COc1ccc2c(c1S(=O)(=O)Nc1noc3cc(Cn4cccn4)cc(OC)c13)OC1CC1O2` (stereo not shown) [Compound 50, N-(6-((1H-Pyrazol-1-yl)methyl)-4-methoxybenzo[d]isoxazol-3-yl)-4-methoxy-1a,7a-dihydro-1H-benzo[b]cyclopropa[e][1,4]dioxine-3-sulfonamide], the IC50 on KAT6A worked out at 6.8 nM; in test [1], 6.5 nM; against KAT6B, 51.6 nM.
Take `COc1ccc2c(c1S(=O)(=O)Nc1noc3cc(Cn4cccn4)c(C)cc13)OCCCO2` [Compound 17, N-(6-((1H-Pyrazol-1-yl)methyl)-5-methylbenzo[d]isoxazol-3-yl)-7-methoxy-3,4-dihydro-2H-benzo [b] [1,4] dioxepine-6-sulfonamide]: in the test on ZR-75-1 cells, the IC50 came out at 3.7 nM.
For the compound `COc1ccc2c(c1S(=O)(=O)Nc1noc3cc(Cn4cccn4)cc(OC)c13)OCC21COC1` [Compound 49, N-(6-((1H-Pyrazol-1-yl)methyl)-4-methoxybenzo[d]isoxazol-3-yl)-6-methoxy-2H-spiro[benzofuran-3,3'-oxetane]-7-sulfonamide], the IC50 against KAT6A is 3 nM; in test [1] it was 4.2 nM; on KAT6B it was 23.1 nM.
On to `COc1ccc2c(c1S(=O)(=O)Nc1noc3cc(Oc4nccs4)cc(OC)c13)OC[C@@H]1C[C@H]21` [Compound 47, (1aR,7bS)-5-Methoxy-N-(4-methoxy-6-(thiazol-2-yloxy)benzo[d]isoxazol-3-yl)-1,1a,2,7 b-tetrahydrocyclopropa[c]chromene-4-sulfonamide], for which the figures for the IC50 (at KAT6A; in test [1]; against KAT6B) were 0.8 nM, 3.4 nM and 1.5 nM, respectively.
For `COc1ccc2c(c1S(=O)(=O)Nc1noc3cc(Cn4cccn4)c(C)c(OC)c13)OCC1CC21` (stereo not shown) [Compound 24, N-(6-((1H-Pyrazol-1-yl)methyl)-4-methoxy-5-methylbenzo[d]isoxazol-3-yl)-5-methoxy-1,1a,2,7b-tetrahydrocyclopropa[c]chromene-4-sulfonamide], the IC50 at KAT6A was 3.1 nM; against KAT6B, 34.4 nM.
Consider `[2H]C([2H])([2H])Oc1cc(Cn2cccn2)cc2onc(NS(=O)(=O)c3c(OC)ccc4c3OC[C@@H]3C[C@H]43)c12` [Compound 45, (1aR,7bS)-N-(6-((1H-Pyrazol-1-yl)methyl)-4-(methoxy-d3)benzo[d]isoxazol-3-yl)-5-met hoxy-1,1a,2,7b-tetrahydrocyclopropa[c]chromene-4-sulfonamide], for which the IC50 in the test on ZR-75-1 cells was 0.04 nM; against KAT6A, 0.6 nM; against KAT6B, 1.4 nM.
For the compound `[2H]C([2H])([2H])Oc1cc(Cn2cccn2)cc2onc(NS(=O)(=O)c3c(OC)ccc4c3OCCCO4)c12` [Compound 46, 7-Methoxy-N-[6-(pyrazol-1-ylmethyl)-4-(trideuteriomethoxy)-1,2-benzoxazol-3-yl]-3,4-dihydro-2H-1,5-benzodioxepine-6-sulfonamide], the figures for the IC50 in the test on ZR-75-1 cells, at KAT6A and against KAT6B were 1 nM, 5.4 nM and 33.8 nM, respectively.
For `CCOc1cc2c(NS(=O)(=O)c3c(OC)ccc4c3OCCCO4)noc2cc1Cn1cccn1` [Compound 18, N-(6-((1H-Pyrazol-1-yl)methyl)-5-ethoxybenzo[d]isoxazol-3-yl)-7-methoxy-3,4-dihydro-2H-benzo [b] [1,4] dioxepine-6-sulfonamide], the IC50 with ZR-75-1 cells turned out to be 22.1 nM.
On to `COc1cc2c(cc1S(=O)(=O)Nc1noc3cc(Cn4cccn4)cc(OC)c13)C1(CC1)CO2` [Compound 4, N-(6-((1H-Pyrazol-1-yl)methyl)-4-methoxybenzo[d]isoxazol-3-yl)-6-methoxy-2H-spiro[benzofuran-3,1'-cyclopropane]-5-sulfonamide], for which the IC50 turned out to be 2 nM at KAT6A and 15 nM against KAT6B.
On to `COc1ccc2c(c1S(=O)(=O)Nc1noc3cc(Cn4cccn4)c4c(c13)OCCC4)OCCCO2` [Compound 22, N-(5-((1H-Pyrazol-1-yl)methyl)-3,4-dihydro-2H-chromeno[8,7-d]isoxazol-9-yl)-7-methoxy-3,4-dihydro-2H-benzo[b][1,4]dioxepine-6-sulfonamide], for which the results for the IC50 with ZR-75-1 cells, at KAT6A and against KAT6B were 0.5 nM, 1.5 nM and 7.3 nM, respectively.
In the case of `CCc1c(Cn2cccn2)cc2onc(NS(=O)(=O)c3c(OC)ccc4c3OCCCO4)c2c1OC` [Compound 26, N-(6-((1H-Pyrazol-1-yl)methyl)-5-ethyl-4-methoxybenzo[d]isoxazol-3-yl)-7-methoxy-3,4-dihydro-2H-benzo[b][1,4]dioxepine-6-sulfonamide], the IC50 against KAT6A was 4.7 nM; against KAT6B, 80.3 nM.
`[2H]C([2H])(c1cc(OC)c2c(NS(=O)(=O)c3c(OC)ccc4c3OC[C@@H]3C[C@H]43)noc2c1)n1cccn1` [Compound 42, (1aR,7bS)-N-(6-((1H-Pyrazol-1-yl)methyl-d2)-4-methoxybenzo[d]isoxazol-3-yl)-5-methoxy-1,1a,2,7b-tetrahydrocyclopropa[c]chromene-4-sulfonamide]: the IC50 in the test with ZR-75-1 cells worked out at 0.1 nM; on KAT6A, 1.1 nM; on KAT6B, 1.6 nM.
The matching figures for `[2H]C([2H])(c1cc(OC)c2c(NS(=O)(=O)c3c(OC)ccc4c3OCCCO4)noc2c1)n1cccn1` [Compound 43, N-(6-((1H-Pyrazol-1-yl)methyl-d2)-4-methoxybenzo[d]isoxazol-3-yl)-7-methoxy-3,4-di hydro-2H-benzo[b][1,4]dioxepine-6-sulfonamide]: 1 nM, 3.7 nM and 28.9 nM.
On to `COc1ccc2c(c1S(=O)(=O)Nc1noc3cc(Cn4cccn4)cc(OC)c13)OC1CC21` (stereo not shown) [Compound 44, 4-Methoxy-N-[4-methoxy-6-(pyrazol-1-ylmethyl)-1,2-benzoxazol-3-yl]-la,6b-dihydro-1 H-cyclopropa[b]benzofuran-3-sulfonamide], for which the IC50 in the test with ZR-75-1 cells was determined as 0.3 nM; against KAT6A, 1.7 nM; against KAT6B, 8.6 nM.
